Values of other authors in patent US6365601B1, “Process for extraction of piperine from piper species” (Council of Scientific and Industrial Research, priority 1999, dated 2002).

Details: Reen and Rashmet, J. Ethnopharmacol., 1997

SMILES: O=C(/C=C/C=C/c1ccc2c(c1)OCO2)N1CCCCC1 [Piperine]
- chemoprotective effect against procarcinogens: potent chemoprotective effect
